Assay results: patent publication US8648105B2, “Diarylthiohydantoin compounds” (The Regents of the University of California, priority 2006, dated 2014)
“Also recorded” adds a separate entry of the source.

Assays:
androgen receptor [1] = target: T1, androgen receptor (Homo sapiens, UniProt P10275, T878A); conditions: 10 uM, 24 hours, with or without 100 pM R1881, LNCaP
T1 sequence (P10275 1-920 T878A): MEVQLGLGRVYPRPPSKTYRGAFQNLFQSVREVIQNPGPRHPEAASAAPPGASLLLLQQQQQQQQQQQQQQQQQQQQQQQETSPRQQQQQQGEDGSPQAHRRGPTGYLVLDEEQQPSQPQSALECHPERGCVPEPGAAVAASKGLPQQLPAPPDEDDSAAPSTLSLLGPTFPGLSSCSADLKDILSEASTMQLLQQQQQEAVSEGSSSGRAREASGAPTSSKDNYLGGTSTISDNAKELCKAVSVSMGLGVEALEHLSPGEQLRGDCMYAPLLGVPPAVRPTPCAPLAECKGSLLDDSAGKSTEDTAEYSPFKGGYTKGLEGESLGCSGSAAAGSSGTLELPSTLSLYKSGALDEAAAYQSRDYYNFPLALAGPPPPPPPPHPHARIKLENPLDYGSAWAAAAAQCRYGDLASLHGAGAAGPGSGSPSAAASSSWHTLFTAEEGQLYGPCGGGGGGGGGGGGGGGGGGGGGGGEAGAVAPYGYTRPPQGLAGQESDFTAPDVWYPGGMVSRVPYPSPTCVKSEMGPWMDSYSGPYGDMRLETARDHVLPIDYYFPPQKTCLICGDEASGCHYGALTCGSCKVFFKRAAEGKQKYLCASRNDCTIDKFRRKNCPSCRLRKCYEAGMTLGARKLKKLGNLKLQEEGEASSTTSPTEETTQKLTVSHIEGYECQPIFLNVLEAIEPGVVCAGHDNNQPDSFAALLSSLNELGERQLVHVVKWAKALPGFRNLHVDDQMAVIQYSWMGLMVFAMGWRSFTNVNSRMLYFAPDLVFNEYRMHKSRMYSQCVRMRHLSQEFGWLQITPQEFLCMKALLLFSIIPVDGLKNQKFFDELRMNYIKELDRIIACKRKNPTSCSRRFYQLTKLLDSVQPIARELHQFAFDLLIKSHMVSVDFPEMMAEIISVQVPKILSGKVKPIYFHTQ

[2] = tested on: AR-overexpressed LNCaP xenograft tumors; assay: AR-overexpressed LNCaP xenograft model in castrated SCID mice; assay type: in vivo
Method: FIG. 7 is a graph of tumor size. AR overexpressing LNCaP cells were injected in the flanks of castrated SCID mice, subcutaneously. When tumors reached about 100 cubic mm, they were randomized into five groups. Each group had nine animals. […]. The tumors were measured three-dimensionally, width, length and depth, using a caliper.
FIG. 8 depicts experimental results of tumor size. At day 18, the animals were imaged via an optical CCD camera, 3 hours after last dose of treatment. A ROI was drawn over the tumor for luciferase activity measurement in photon/second. The right panels is a representation of the ROIs measurements.
Compounds of the invention are used to examine if the diaryihydantoin derivatives have in vivo effects on hormone refractory prostate cancer. First we examine this compound on xenograft tumors established from AR-overexpressed LNCaP cells. Engineered cells in Matrigel (Collaborative Biomedical) are injected subcutaneously into the flanks of the castrated male SCID mice. Tumor size is measured weekly in three dimensions using calipers. After xenograft tumors established (tumor size at least 40 mm^3), mice with tumors are randomized and treated with different doses of compounds orally once daily. The inhibitory effect on growth of AR-overexpressed LNCaP xenograft model is studied as follows. Mice with established LN-AR xenograft tumors are randomized and treated with indicated compounds orally once daily. Tumor size are measured by caliber.
All animal experiments were performed in compliance with the guidelines of the Animal Research Committee of the University of California at Los Angeles. Animals were bought from Taconic and maintained in a laminar flow tower in a defined flora colony. LNCaP-AR and LNCaP-vector cells were maintained in RPMI medium supplemented with 10% FBS. 10^6 cells in 100 μl of 1:1 Matrigel to RPMI medium were injected subcutaneously into the flanks of intact or castrated male SCID mice. Tumor size was measured weekly in three dimensions (length×width×depth) using calipers. Mice were randomized to treatment groups when tumor size reached approximately 100 mm^3. Drugs were given orally every day at 10 mg/kg and 50 mg/kg. To obtain pharmacodynamic readout, the animals were imaged via an optical CCD camera, 3 hours after last dose of the treatment. A ROI is drawn over the tumor for luciferase activity measurement in photon/second. The right panels were a representation of the ROIs measurements. […]

[3] = tested on: LN-AR(HR) cell line tumors; assay: LN-AR(HR) cell line tumors in SCID mice (FIG. 19); assay type: in vivo; conditions: 10 mg per kg body weight per day
Description: (A) The relative tumor volume as a function of time shown for each set of mice. (B) Images of each set of mice with photon emission associated with luciferase activity at day 31 shown as color contours. (C) Rate of photon emission associated with luciferase activity shown at several times for each set of mice.

androgen receptor [4] = target: T1, androgen receptor; conditions: 10 uM (R1881 1 nM), LNCaP

Q: `CNC(=O)c1ccc(N2C(=S)N(c3ccc(C#N)c(C(F)(F)F)c3)C(=O)C23CCC3)cc1F` [NC53, N-methyl-4-[7-(4-cyano-3-trifluoromethylphenyl)-8-oxo-6-thioxo-5,7-diaza-spiro[3.4]oct-5-yl]-2-fluorobenzamide] was tested. Which “androgen receptor protein level” value (androgen receptor [1]) did it give?
A: destabilized androgen receptor proteins; also recorded: androgen receptor protein is degraded

Q: What about the “photon emission associated with luciferase activity” value ([2]; FIG. 8, day 18, relative to vehicle) of the same compound?
A: photon emission decreased

Q: What about the “tumor growth / tumor volume” value ([2]; oral once daily, FIG. 7: 10 or 50 mg/kg, 18 days) of the same compound?
A: effective to prevent tumor growth and even to cause tumor shrinkage, and was distinctly more effective than bicalutamide; also recorded: tumors decreased in size

Q: What about the “tumor size and photon emission associated with luciferase activity” value [3] of the same compound?
A: decrease or stabilization of tumor size and a decrease in photon emission associated with luciferase activity

Q: And the “androgen receptor nuclear translocation” value (androgen receptor [4])?
A: inhibited androgen receptor nuclear translocation
